Data from publication PMC10975593 (ACS Omega, 2024).
Like-named read-outs stand apart in the source and are kept apart here.

Key:
Experiment in all cases: Kinase selectivity for OMS14
Type in all cases: biochemical
PDK1 Direct = target: T1, PDK1 Direct (Homo sapiens, UniProt O15530)
T1 sequence (O15530 1-556): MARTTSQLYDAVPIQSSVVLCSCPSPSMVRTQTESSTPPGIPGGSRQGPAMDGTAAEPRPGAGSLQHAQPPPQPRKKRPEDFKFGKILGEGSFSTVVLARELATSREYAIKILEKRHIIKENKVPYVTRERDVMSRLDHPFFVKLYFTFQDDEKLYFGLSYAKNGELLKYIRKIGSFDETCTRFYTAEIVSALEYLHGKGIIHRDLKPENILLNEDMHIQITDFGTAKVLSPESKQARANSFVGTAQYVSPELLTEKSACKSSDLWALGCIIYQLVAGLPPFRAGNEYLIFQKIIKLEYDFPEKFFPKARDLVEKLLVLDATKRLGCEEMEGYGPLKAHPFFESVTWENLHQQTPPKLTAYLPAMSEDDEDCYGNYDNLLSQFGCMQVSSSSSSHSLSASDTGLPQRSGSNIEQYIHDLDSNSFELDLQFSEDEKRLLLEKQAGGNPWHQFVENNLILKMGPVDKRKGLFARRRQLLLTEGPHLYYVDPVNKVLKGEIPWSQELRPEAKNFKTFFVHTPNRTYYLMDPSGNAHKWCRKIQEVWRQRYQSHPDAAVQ

CDK1/cyclin B = CDK1/cyclin B (Homo sapiens, UniProt P06493)
CDK1/cyclin B, sequence (P06493 whole entry): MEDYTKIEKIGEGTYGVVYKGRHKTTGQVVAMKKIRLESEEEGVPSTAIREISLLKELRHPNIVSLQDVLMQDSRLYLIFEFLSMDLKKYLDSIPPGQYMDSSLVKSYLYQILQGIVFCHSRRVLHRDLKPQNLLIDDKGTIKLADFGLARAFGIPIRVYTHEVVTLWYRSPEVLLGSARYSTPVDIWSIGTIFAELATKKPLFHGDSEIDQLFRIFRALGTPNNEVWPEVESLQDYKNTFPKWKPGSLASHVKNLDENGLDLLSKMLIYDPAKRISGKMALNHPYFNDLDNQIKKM
CDK1/cyclin B, sequence (P14635 whole entry, further chain): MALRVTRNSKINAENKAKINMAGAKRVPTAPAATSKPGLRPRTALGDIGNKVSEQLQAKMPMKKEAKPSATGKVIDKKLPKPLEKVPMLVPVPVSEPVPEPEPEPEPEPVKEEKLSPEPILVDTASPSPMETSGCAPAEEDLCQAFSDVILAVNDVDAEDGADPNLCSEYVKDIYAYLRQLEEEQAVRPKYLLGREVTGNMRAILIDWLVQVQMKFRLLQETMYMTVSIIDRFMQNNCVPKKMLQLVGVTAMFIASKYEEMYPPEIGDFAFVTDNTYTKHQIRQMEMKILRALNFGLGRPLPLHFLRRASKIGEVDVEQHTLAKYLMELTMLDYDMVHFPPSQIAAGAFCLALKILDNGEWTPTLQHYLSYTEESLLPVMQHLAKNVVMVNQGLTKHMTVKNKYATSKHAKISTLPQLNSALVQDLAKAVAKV

AKT1 (PKB α) = AKT1 (PKB α) (Homo sapiens, UniProt P31749)
AKT1 (PKB α), sequence (P31749 whole entry): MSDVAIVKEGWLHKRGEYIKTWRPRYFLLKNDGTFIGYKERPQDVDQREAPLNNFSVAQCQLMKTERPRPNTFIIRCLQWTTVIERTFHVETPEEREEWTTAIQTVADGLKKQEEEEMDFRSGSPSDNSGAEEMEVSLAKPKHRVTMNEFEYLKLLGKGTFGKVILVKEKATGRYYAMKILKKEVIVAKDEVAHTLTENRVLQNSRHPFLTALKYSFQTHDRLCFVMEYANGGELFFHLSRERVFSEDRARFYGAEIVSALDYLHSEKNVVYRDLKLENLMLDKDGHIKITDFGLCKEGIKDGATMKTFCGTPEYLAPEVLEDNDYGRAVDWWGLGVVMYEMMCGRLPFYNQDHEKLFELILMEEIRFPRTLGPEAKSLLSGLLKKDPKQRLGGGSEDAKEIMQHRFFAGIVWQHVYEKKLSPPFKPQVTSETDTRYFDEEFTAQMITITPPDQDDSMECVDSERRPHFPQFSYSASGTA

[1] = read-out: % of inhibition (mean)
[2] = read-out: % of inhibition, point 1
[3] = read-out: % of inhibition, point 2

## O=C(CN1CCN(CC(=O)Nc2nc3ccccc3s2)CC1)Nc1ccc([N+](=O)[O-])cc1 [OMS14, N-(benzo[d]thiazol-2-yl)-2-(4-(2-((4-nitrophenyl)amino)-2-oxoethyl)piperazin-1-yl)acetamide]
PDK1 Direct; [1]
  inhibition at 100 µM: -7%
PDK1 Direct; [2]
  inhibition at 100 µM: -6%
PDK1 Direct; [3]
  inhibition at 100 µM: -8%
CDK1/cyclin B; [1]
  inhibition at 100 µM: 24%
CDK1/cyclin B; [2]
  inhibition at 100 µM: 23%
CDK1/cyclin B; [3]
  inhibition at 100 µM: 25%
AKT1 (PKB α); [1]
  inhibition at 100 µM: 14%
AKT1 (PKB α); [2]
  inhibition at 100 µM: 11%
AKT1 (PKB α); [3]
  inhibition at 100 µM: 17%
